Among the targets are Histone deacetylase 1 (Homo sapiens, UniProt Q13547); Histone deacetylase 2 (Homo sapiens, UniProt Q92769); Histone deacetylase 3 (Homo sapiens, UniProt O15379); Histone deacetylase 4 (Homo sapiens, UniProt P56524); Histone deacetylase 5 (Homo sapiens, UniProt Q9UQL6); Histone deacetylase 9 (Homo sapiens, UniProt Q9UKV0).
The target in experiment [1] is T1, Protein deacetylase HDAC6 (Homo sapiens, UniProt Q9UBN7).
T1 sequence (Q9UBN7 whole entry): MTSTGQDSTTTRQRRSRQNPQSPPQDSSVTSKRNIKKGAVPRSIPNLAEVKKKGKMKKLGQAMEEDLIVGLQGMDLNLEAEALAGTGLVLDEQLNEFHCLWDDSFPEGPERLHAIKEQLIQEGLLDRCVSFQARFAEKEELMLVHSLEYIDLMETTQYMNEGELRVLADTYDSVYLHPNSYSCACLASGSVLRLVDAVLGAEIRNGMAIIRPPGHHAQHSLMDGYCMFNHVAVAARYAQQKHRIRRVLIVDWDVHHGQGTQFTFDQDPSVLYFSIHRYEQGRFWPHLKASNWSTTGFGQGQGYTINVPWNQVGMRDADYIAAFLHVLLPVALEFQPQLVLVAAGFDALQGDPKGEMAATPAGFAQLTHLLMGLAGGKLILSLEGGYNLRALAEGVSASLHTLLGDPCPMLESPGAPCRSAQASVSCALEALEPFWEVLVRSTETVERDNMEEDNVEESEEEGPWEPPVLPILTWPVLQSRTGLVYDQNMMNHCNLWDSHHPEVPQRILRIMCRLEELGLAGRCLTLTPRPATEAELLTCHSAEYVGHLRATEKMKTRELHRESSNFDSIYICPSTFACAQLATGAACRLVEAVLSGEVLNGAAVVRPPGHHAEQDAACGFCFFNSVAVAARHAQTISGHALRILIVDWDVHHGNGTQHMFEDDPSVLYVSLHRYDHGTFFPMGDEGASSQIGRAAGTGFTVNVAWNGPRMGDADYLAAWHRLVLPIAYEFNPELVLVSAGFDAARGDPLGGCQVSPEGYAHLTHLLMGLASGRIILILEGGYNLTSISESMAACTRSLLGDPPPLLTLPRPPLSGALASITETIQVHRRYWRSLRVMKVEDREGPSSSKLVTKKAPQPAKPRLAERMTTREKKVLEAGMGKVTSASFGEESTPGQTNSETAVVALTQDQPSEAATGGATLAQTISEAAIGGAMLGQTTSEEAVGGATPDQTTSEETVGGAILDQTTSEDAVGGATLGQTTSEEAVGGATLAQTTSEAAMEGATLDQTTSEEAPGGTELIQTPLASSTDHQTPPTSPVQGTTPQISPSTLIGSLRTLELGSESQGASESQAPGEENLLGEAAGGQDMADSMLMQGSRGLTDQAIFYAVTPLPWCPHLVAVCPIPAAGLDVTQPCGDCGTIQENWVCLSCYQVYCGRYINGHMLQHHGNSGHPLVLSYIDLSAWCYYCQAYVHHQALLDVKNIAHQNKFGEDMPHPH

A further experiment addresses T2, Histone deacetylase 7 (Homo sapiens, UniProt Q8WUI4).
T2 sequence (Q8WUI4 whole entry): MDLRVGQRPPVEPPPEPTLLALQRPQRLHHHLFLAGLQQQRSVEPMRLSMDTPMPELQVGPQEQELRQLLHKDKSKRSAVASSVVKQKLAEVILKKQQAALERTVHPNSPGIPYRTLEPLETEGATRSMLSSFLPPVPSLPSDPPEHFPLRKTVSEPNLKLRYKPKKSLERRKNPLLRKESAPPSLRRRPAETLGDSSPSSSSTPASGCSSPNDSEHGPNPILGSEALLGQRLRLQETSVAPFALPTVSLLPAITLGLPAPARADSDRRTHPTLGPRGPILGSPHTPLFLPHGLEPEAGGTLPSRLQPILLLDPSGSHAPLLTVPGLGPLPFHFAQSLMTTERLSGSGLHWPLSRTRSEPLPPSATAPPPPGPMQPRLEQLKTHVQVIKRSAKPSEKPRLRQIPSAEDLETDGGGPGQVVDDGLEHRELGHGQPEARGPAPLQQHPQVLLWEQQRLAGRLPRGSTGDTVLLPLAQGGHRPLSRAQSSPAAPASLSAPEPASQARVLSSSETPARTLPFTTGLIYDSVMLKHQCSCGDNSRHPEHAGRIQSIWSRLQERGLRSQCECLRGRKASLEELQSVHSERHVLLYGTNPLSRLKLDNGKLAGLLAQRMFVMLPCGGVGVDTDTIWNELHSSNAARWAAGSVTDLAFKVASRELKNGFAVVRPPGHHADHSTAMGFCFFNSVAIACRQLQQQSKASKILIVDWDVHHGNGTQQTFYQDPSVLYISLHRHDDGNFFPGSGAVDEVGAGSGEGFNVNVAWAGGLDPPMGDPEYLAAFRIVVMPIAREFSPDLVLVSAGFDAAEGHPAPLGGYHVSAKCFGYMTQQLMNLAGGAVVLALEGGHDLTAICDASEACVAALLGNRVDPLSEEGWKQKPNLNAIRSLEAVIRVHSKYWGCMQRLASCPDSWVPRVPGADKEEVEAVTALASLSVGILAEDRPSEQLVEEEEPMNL

The target in a further experiment is T3, Histone deacetylase 8 (Homo sapiens, UniProt Q9BY41).
T3 sequence (Q9BY41 whole entry): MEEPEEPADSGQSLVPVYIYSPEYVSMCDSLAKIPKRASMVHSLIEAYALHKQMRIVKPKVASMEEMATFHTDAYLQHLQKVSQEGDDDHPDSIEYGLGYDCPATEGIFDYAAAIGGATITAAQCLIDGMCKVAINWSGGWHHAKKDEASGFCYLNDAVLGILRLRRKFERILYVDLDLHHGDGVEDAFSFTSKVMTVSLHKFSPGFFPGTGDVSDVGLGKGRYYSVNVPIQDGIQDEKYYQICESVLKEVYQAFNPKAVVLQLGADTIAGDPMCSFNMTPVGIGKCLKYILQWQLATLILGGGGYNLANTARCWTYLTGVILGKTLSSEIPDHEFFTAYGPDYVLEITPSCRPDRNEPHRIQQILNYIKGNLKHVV

The term Ki denotes a dissociation constant, usually derived from enzyme kinetics or from competition with a known ligand. The low end stands for a stronger hold on the target, the high end for a looser hold on the target.

Histone deacetylase 2, sequence (Q92769 whole entry): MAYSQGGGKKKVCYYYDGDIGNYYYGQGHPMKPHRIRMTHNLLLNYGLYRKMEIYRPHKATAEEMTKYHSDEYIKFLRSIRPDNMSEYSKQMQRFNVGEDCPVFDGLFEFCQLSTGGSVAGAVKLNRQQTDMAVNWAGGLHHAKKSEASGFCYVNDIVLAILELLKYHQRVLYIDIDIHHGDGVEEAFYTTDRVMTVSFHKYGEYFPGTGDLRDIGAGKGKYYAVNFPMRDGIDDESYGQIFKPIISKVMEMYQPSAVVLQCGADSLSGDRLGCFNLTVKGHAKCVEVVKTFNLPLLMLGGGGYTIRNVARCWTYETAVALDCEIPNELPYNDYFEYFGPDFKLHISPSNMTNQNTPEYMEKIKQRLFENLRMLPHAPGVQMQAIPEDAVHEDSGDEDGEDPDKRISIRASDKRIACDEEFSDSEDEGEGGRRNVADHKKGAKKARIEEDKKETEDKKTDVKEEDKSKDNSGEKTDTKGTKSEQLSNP
Histone deacetylase 9, sequence (Q9UKV0 whole entry): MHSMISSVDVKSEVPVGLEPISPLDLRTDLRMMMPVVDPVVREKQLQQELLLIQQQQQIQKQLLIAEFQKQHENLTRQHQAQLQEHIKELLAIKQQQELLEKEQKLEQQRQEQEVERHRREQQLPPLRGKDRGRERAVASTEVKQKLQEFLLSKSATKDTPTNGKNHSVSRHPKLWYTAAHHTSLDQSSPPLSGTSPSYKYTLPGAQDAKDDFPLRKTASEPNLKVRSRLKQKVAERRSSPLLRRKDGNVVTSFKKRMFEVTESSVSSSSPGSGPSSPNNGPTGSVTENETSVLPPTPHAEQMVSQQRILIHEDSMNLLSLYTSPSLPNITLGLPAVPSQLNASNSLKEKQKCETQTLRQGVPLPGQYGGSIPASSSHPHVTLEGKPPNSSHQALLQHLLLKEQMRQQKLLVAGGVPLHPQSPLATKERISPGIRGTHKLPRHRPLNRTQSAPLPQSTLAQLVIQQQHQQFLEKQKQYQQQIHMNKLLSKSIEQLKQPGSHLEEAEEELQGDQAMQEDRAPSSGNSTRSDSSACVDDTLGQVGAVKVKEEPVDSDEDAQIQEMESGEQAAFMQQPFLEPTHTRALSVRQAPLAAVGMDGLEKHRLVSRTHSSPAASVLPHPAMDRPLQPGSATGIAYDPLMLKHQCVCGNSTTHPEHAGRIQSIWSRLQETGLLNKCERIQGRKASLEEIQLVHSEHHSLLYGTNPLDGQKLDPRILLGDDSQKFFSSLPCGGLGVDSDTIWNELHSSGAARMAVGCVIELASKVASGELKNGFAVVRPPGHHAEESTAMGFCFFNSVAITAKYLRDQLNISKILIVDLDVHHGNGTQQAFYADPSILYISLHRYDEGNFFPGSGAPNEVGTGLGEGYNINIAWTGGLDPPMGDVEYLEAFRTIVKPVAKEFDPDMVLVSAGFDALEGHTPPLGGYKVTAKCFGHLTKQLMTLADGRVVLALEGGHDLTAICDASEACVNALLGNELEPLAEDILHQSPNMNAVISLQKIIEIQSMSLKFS
Histone deacetylase 1, sequence (Q13547 whole entry): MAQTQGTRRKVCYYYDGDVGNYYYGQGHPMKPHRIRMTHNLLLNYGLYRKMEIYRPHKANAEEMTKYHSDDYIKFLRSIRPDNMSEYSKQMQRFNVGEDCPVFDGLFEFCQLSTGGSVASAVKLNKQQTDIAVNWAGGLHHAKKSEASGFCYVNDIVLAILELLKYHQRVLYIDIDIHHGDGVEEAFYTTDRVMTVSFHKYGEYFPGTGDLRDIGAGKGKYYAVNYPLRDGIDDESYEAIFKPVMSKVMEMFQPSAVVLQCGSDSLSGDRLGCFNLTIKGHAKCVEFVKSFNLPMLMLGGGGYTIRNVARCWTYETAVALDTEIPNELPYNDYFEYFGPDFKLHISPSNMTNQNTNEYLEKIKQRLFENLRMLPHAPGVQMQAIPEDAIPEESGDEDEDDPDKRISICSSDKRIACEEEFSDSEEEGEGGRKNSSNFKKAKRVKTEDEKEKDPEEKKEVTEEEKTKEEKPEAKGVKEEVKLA
Histone deacetylase 3, sequence (O15379 whole entry): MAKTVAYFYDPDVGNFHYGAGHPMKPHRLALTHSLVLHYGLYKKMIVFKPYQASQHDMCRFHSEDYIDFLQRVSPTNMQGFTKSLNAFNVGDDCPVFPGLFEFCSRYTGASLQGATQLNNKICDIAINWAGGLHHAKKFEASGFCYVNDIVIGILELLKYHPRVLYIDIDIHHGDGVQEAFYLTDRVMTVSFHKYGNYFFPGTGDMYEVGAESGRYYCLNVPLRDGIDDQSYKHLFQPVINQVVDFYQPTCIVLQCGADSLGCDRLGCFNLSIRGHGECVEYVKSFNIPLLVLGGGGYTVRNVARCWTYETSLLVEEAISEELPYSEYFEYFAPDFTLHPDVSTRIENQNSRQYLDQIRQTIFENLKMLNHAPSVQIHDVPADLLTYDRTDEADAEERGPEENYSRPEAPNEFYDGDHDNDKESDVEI
Histone deacetylase 4, sequence (P56524 whole entry): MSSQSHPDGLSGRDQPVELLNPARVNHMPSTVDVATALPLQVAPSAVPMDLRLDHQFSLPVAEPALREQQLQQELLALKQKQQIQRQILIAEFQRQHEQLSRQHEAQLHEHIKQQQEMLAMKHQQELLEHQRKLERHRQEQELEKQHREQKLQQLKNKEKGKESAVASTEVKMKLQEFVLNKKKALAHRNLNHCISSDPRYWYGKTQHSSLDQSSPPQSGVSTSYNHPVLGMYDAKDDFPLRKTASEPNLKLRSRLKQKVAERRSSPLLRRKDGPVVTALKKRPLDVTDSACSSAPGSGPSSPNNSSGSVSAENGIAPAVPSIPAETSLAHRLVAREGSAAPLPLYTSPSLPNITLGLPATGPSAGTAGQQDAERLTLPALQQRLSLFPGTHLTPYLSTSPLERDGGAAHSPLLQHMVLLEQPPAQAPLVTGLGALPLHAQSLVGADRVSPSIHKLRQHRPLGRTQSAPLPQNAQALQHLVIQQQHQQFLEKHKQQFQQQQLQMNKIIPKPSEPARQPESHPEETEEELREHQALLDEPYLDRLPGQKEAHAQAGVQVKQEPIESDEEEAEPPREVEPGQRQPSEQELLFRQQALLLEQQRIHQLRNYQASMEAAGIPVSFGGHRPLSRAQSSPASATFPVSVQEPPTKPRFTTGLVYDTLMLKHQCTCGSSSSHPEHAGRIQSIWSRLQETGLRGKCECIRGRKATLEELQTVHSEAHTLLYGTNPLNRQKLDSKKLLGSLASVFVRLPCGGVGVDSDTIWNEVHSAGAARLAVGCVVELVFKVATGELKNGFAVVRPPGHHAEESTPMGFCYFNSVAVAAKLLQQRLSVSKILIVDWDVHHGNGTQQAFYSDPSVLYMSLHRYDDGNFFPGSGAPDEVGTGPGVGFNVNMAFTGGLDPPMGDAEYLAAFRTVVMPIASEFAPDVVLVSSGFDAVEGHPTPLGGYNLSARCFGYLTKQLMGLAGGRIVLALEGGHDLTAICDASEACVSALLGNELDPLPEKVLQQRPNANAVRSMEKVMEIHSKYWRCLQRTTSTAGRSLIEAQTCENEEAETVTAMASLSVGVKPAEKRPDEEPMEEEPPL
Histone deacetylase 5, sequence (Q9UQL6 whole entry): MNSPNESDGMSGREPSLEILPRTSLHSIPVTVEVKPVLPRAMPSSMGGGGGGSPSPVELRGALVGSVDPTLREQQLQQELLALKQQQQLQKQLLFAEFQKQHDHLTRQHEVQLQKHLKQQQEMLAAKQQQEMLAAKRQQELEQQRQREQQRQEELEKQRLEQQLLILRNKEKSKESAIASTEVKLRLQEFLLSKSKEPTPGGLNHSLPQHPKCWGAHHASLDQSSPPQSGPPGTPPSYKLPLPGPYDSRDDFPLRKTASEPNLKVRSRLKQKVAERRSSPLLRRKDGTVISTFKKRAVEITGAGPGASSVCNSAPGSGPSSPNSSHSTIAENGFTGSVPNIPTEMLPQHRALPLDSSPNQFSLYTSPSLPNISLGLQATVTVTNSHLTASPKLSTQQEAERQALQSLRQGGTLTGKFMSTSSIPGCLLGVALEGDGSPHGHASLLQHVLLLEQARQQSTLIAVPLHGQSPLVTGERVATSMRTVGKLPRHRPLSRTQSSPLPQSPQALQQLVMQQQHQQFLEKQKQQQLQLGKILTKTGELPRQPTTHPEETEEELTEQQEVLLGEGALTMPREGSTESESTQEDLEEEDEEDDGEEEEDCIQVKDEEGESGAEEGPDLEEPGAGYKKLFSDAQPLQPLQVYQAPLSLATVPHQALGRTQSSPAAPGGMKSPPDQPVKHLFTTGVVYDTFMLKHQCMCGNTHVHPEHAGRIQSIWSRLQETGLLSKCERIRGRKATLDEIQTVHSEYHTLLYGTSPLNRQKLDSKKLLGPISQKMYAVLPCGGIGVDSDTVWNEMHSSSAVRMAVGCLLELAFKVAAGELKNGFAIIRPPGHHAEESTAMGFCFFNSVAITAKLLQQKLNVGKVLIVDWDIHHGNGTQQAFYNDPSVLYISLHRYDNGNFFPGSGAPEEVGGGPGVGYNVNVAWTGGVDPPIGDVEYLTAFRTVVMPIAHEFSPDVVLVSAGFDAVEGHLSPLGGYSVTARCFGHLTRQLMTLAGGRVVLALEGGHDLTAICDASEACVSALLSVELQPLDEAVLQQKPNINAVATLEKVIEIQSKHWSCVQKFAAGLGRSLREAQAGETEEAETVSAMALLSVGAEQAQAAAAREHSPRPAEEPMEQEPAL

As to `O=C(/C=C/c1ccc(C(=O)N/N=C/c2ccc(O)c(O)c2O)cc1)NO`, the Ki at Histone deacetylase 1 stood at 120 nM; on Histone deacetylase 2 it was 70 nM; on Histone deacetylase 3, 120 nM; on Histone deacetylase 4, 950 nM; on Histone deacetylase 5 it was 180 nM; in experiment [1], 32 nM. In addition, the inhibition constant (Ki) at Histone deacetylase 7 was found to be 1100 nM; at Histone deacetylase 8, 50 nM; at Histone deacetylase 9, 1400 nM.
On to `Cn1c(/C=C/C(=O)NO)ccc1C(=O)Cc1ccccc1`, for which the Ki turned out to be 55 nM at Histone deacetylase 1; 125 nM at Histone deacetylase 2; 250 nM at Histone deacetylase 3; 17500 nM at Histone deacetylase 4; 11500 nM on Histone deacetylase 5; 30 nM in [1]. The figures for the Ki at Histone deacetylase 7, on Histone deacetylase 8 and on Histone deacetylase 9 were 7000 nM, 600 nM and 10000 nM, respectively.
On to `O=C(/C=C/c1cccc(S(=O)(=O)Nc2ccccc2)c1)NO` [BELINOSTAT], for which the Ki is 380 nM on Histone deacetylase 4 and 1.6 nM in [1].
For `C=C[C@@H](O)[C@@H]1O[C@H]1/C=C/[C@@H]1O[C@H]1[C@@H](C)O` [DEPUDECIN], the Ki was 5500 nM at Histone deacetylase 1, 12500 nM at Histone deacetylase 2 and 14500 nM on Histone deacetylase 3.
Turning to `CCN(CC)Cc1ccc2cc(COC(=O)Nc3ccc(C(=O)NO)cc3)ccc2c1` [GIVINOSTAT], the Ki was 1050 nM on Histone deacetylase 4, 600 nM on Histone deacetylase 5 and 390 nM at Histone deacetylase 9.
In the case of `O=C(O)CCCCCCC(=O)Nc1ccc([C@H]2O[C@@H](CSc3nc(-c4ccccc4)c(-c4ccccc4)o3)C[C@@H](c3ccc(CO)cc3)O2)cc1` [NILTUBACIN], the Ki in experiment [1] worked out at 2200 nM; on Histone deacetylase 8, 750 nM.
For `O=C(CCCc1ccccc1)NO` [PHENYLBUTYRYLHYDROXAMIC ACID], the Ki at Histone deacetylase 2 was 430 nM; on Histone deacetylase 5 it was 16000 nM; in experiment [1], 150 nM; on Histone deacetylase 8, 1850 nM.
For `O=C(CCCCCCC(=O)Nc1cccnc1)NO` [PYROXAMIDE], the Ki on Histone deacetylase 2 is 36000 nM; on Histone deacetylase 3 it was 8 nM; at Histone deacetylase 5, 4750 nM; in experiment [1], 4.8 nM; at Histone deacetylase 8, 1000 nM.
On Histone deacetylase 1, `C/C=C1\NC(=O)[C@H]2CSSCC/C=C/[C@H](CC(=O)N[C@H](C(C)C)C(=O)N2)OC(=O)[C@H](C(C)C)NC1=O` [ROMIDEPSIN] showed a Ki of 0.0015 nM.
In the case of `O=C(CCCCCCC(=O)NO)NO` [SUBEROHYDROXAMIC ACID], the results for the Ki (on Histone deacetylase 3; at Histone deacetylase 5; in [1]) were 125 nM, 9500 nM and 14.5 nM, respectively.

Values taken from ChEMBL document CHEMBL1212811, “Chemical phylogenetics of histone deacetylases” (Nat Chem Biol, 2010).
